# The source made the active and inactive calls. The rule behind the calls is not given here.
# How the values were obtained:
# [1] = Metal chelating activity assessed as compound-Mn2+ complex formation by optical shift at 50 uM in PBS buffer 7.4 by UV-vis spectrometric analysis
# BV-2 [2] = test: Effect of amyloid beta (1 to 42) indued apoptosis in mouse BV-2 cells assessed as viable cells at 5 uM measured by propidium iodide staining based flow cytometric analysis (reference value: 61.29%); type: functional; details: read-out: Activity
# BV-2 [3] = test: Effect of amyloid beta (1 to 42) indued apoptosis in mouse BV-2 cells assessed as necrotic cells at 2.5 uM measured by propidium iodide staining based flow cytometric analysis (reference value: 5.72%); type: functional
# BV-2 [4] = test: Neuroprotective activity against amyloid beta (1 to 42) induced neurotoxicity in mouse BV-2 cells assessed as survival of cells at 2.5 uM treated for 24 hrs relative to control; type: functional
# Mus musculus [5] = test: Neuroprotective effect in scopolamine induced cognitively impaired mouse assessed as […] of amyloid beta plaque deposition at 20 mg/kg by ELISA analysis; type: functional, organism-based
# [6] = Drug concentration in plasma of Sprague-Dawley rat at 15 mg/kg, IG measured after 0.083 hrs; type: ADME, organism-based; details: po
# Mus musculus [7] = test: Antioxidant activity in scopolamine induced cognitive impaired mouse assessed as increase of GSH level in cortex at 20 mg/kg; type: functional, organism-based
# Mus musculus [8] = test: In vivo antiinflammatory activity in scopolamine induced cognitive impaired ICR mouse assessed as decrease in Iba1 levels in hippocampus by immunoblot analysis; type: functional, organism-based
# BV-2 [9] = test: Effect of amyloid beta (1 to 42) indued apoptosis in mouse BV-2 cells assessed as viable cells at 10 uM measured by propidium iodide staining based flow cytometric analysis (reference value: 61.29%); type: functional; details: read-out: Activity
# BV-2 [10] = test: Antiinflammatory activity in LPS induced mouse BV-2 cells decrease in release of […] at 5 uM by […] (reference value: 100%); type: functional
# [11] = Drug concentration in plasma of Sprague-Dawley rat at 15 mg/kg, IG measured after 2 hrs; type: ADME, organism-based; details: po
# [12] = target: T1, Amyloid-beta precursor protein (Homo sapiens, UniProt P05067); test: Inhibition of Cu2+ induced of amyloid beta (1 to 42) aggregation (unknown origin)
# T1 sequence (P05067 whole entry): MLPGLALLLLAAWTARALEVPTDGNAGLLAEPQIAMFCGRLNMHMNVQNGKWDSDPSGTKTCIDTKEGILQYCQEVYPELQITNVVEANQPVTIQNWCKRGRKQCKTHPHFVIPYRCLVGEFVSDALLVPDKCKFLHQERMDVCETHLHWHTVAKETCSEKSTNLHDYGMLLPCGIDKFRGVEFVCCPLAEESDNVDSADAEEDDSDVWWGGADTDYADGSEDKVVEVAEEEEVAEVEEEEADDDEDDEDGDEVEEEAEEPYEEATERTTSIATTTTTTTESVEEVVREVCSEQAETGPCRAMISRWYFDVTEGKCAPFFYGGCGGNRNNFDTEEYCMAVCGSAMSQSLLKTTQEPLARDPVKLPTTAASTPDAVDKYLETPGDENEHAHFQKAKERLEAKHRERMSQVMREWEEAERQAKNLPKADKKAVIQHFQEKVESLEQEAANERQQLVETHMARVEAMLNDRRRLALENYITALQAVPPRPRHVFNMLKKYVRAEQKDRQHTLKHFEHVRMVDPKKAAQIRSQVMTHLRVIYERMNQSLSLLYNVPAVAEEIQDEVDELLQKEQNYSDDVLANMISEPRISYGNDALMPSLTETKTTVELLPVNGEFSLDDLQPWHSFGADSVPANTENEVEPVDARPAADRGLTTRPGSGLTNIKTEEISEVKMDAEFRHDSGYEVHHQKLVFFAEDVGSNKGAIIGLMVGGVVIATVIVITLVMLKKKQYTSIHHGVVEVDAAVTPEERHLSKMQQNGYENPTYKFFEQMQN
# [13] = Drug concentration in hippocampus of Sprague-Dawley rat at 15 mg/kg, IG measured after 0.167 hrs; type: ADME, organism-based; details: po, read-out: Drug uptake
# [14] = Drug concentration in hippocampus of Sprague-Dawley rat at 15 mg/kg, IG measured after 0.083 hrs; type: ADME, organism-based; details: po, read-out: Drug uptake
# [15] = Acute toxicity in mouse assessed as histopathological change in spleen at 2000 mg/kg, IG administered as single dose measured after 14 days measured by H and E staining analysis; type: organism-based; details: in vivo, po, 336 h, time 14 day
# Mus musculus [16] = test: In vivo antiinflammatory activity in scopolamine induced cognitive impaired ICR mouse assessed as decrease in IL-6 levels in cortex; type: functional, organism-based
# [17] = Ratio of drug concentration in hippocampus to plasma of Sprague-Dawley rat at 15 mg/kg, IG measured after 0.25 hrs; type: ADME, organism-based; details: po
# [18] = Acute toxicity in mouse assessed as histopathological change in brain at 2000 mg/kg, IG administered as single dose measured after 14 days measured by H and E staining analysis; type: organism-based; details: in vivo, po, 336 h, time 14 day
# BV-2 [19] = test: Effect on H2O2 induced reactive oxygen species in mouse BV-2 cells assessed as reduction of ROS generation at 10 uM by fluorescence microscopic analysis relative to control; type: functional; parameters: scale not given: the % may be the effect or the level left
# [20] = target: T1, Amyloid-beta precursor protein; test: Inhibition of Fe3+ induced of amyloid beta (1 to 42) aggregation (unknown origin)
# [21] = Drug concentration in plasma of Sprague-Dawley rat at 15 mg/kg, IG measured after 0.167 hrs; type: ADME, organism-based; details: po
# [22] = Acute toxicity in mouse assessed as lethal dose administered as single IG dose measured after 14 days measured by H and E staining analysis; details: in vivo, po, time 14 day
# [23] = Tmax in Sprague-Dawley rat at 15 mg/kg, IG; type: ADME, organism-based; details: in vivo, po
# [24] = Metal chelating activity assessed as compound-Cu2+ complex formation by measuring shift at 1:1 at 50 uM in PBS buffer 7.4 by UV-vis spectrometric analysis
# [25] = target: T1, Amyloid-beta precursor protein; test: Inhibition of amyloid beta (1 to 42) (unknown origin) self aggregation assessed as disaggregation relative to control; parameters: concentration or dose not given beside the values; details: concentration not given here
# BV-2 [26] = test: Neuroprotective activity against amyloid beta (1 to 42) induced neurotoxicity in mouse BV-2 cells assessed as survival of cells treated for 24 hrs; type: functional, cell-based; details: dose 2.5-10 µM
# BV-2 [27] = test: Effect of amyloid beta (1 to 42) indued apoptosis in mouse BV-2 cells assessed as late apoptotic cells at 10 uM measured by propidium iodide staining based flow cytometric analysis (reference value: 6.88%); type: functional
# BV-2 [28] = test: Effect of amyloid beta (1 to 42) indued apoptosis in mouse BV-2 cells assessed as viable cells at 2.5 uM measured by propidium iodide staining based flow cytometric analysis (reference value: 61.29%); type: functional; details: read-out: Activity
# [29] = Drug concentration in plasma of Sprague-Dawley rat at 15 mg/kg, IG measured after 1 hrs; type: ADME, organism-based; details: po
# [30] = target: T1, Amyloid-beta precursor protein; test: Inhibition of amyloid beta (1 to 42) (unknown origin) self aggregation assessed as decrease in number of amyloid beta fibrils at 50 uM for 24 hrs
# [31] = Metal chelating activity assessed as compound-Fe2+ complex formation by measuring shift at 2:1 at 50 uM in PBS buffer 7.4 by UV-vis spectrometric analysis
# [32] = Drug concentration in hippocampus of Sprague-Dawley rat at 15 mg/kg, IG measured after 2 hrs; type: ADME, organism-based; details: po, read-out: Drug uptake
# BV-2 [33] = test: Antioxidant activity in H2O2 treated mouse BV-2 cells assessed as nuclear translocation of NRF2 at 5 to 20 uM by immunofluorescence analysis; type: functional, cell-based; details: dose 5-20 µM
# Mus musculus [34] = test: In vivo effect on NRF2 expression in scopolamine induced cognitive impaired mouse assessed as reversal of NRF2 signalling in hippocampus treated at 20 mg/kg by immunofluorescence analysis; type: functional, organism-based
# BV-2 [35] = test: Effect on H2O2 induced reactive oxygen species in mouse BV-2 cells assessed as reduction of ROS generation at 20 uM by fluorescence microscopic analysis relative to control; type: functional; parameters: scale not given: the % may be the effect or the level left
# Mus musculus [36] = test: Antioxidant activity in scopolamine induced cognitive impaired mouse assessed as decrease of MDA level in cortex at 20 mg/kg; type: functional, organism-based
# Mus musculus [37] = test: Neuroprotective effect in scopolamine induced cognitively impaired mouse assessed as decrease in neuronal damage in CA1 region by measuring increase in neuronal nuclear antigen level at hippocampus at 20 mg/kg by immunoblot analysis; type: functional, organism-based
# BV-2 [38] = test: Effect of amyloid beta (1 to 42) indued apoptosis in mouse BV-2 cells assessed as necrotic cells at 10 uM measured by propidium iodide staining based flow cytometric analysis (reference value: 5.72%); type: functional
# Mus musculus [39] = test: In vivo effect on HO-1 expression in scopolamine induced cognitive impaired mouse assessed as reversal of NRF2 signalling in hippocampus treated at 20 mg/kg by immunofluorescence analysis; type: functional, organism-based
# [40] = Metal chelating activity assessed as compound-Ca2+ complex formation by optical shift at 50 uM in PBS buffer 7.4 by UV-vis spectrometric analysis
structure (smiles),measurement,setting,value
O=c1ccoc(/C=C/c2ccc(O)c(O)c2)c1O,Activity,[1],inactive
same,viability at 5 µM,BV-2 [2],77.4%
same,Activity,BV-2 [3],0.16%
same,Activity,BV-2 [4],56.3%
same,Activity,Mus musculus [5],Active
same,concentration at 0.083 h,[6],18.5 ng/mL
same,Activity,Mus musculus [7],Active
same,Activity,Mus musculus [8],Active
same,viability at 10 µM,BV-2 [9],63.1%
same,Nitric oxide release (% of LPS control),BV-2 [10],86.32%
same,concentration at 2 h,[11],0.99 ng/mL
same,IC50,[12],3.69 µM
same,concentration at 0.167 h,[13],1.41 ng/mL
same,concentration at 0.083 h,[14],1.14 ng/mL
same,Activity,[15],Non-Toxic
same,Activity,Mus musculus [16],Active
same,Kp at 0.25 h,[17],0.5
same,Activity,[18],Non-Toxic
same,Activity,BV-2 [19],34.85%
same,IC50,[20],9.68 µM
same,concentration at 0.167 h,[21],22.2 ng/mL
same,LD50 at 336 h,[22],≥ 2000 mg/kg
same,Tmax,[23],10.2 min
same,Activity,[24],Active
same,inhibition,[25],90.4%
same,Activity,BV-2 [26],Dose-Dependent Effect
same,Activity,BV-2 [27],6.82%
same,viability at 2.5 µM,BV-2 [28],76.2%
same,concentration at 1 h,[29],1.77 ng/mL
same,inhibition,[30],Active
same,Activity,[31],Active
same,concentration at 2 h,[32],6.37 ng/mL
same,Activity,BV-2 [33],Active
same,Activity,Mus musculus [34],Active
same,Activity,BV-2 [35],45.48%
same,Activity,Mus musculus [36],Active
same,Activity,Mus musculus [37],Active
same,Activity,BV-2 [38],7.98%
same,Activity,Mus musculus [39],Active
same,Activity,[40],inactive
